How the values were obtained:
Experiment in all cases: normalised response (% of control), CellTox Green; higher = less cell death (100 = DMSO, 0 = benzethonium chloride kill control)
Settings in all cases: incubation time: 72 h
[1] = tested on: BT-474
Procedure, shortened: (§1)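 CellTox Green fluorescence (485/520 nm) and, after 10 min at room temperature, CellTiter-Glo luminescence were read from breast cancer cell lines incubated 72 h in 384-well plates. Cells were seeded as 20 µl suspension onto compound at 5 concentrations in 10-fold steps over a 10,000-fold range chosen per compound. Each plate was normalised to 0.1 % DMSO (100) and a positive kill control (0). Values are normalised signals, one per concentration.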

[2] = tested on: BT-549
Procedure, shortened: as §1

[3] = tested on: CAL-120
Procedure, shortened: as §1

[4] = tested on: CAL-51
Procedure, shortened: as §1

[5] = tested on: CAL-85-1
Procedure, shortened: as §1

[6] = tested on: DU-4475
Procedure, shortened: as §1

[7] = tested on: HCC1143
Procedure, shortened: as §1

[8] = tested on: HDQ-P1
Procedure, shortened: as §1

[9] = tested on: Hs578T
Procedure, shortened: as §1

[10] = tested on: MCF-10A
Procedure, shortened: as §1

[11] = tested on: MDA-MB-231
Procedure, shortened: as §1

[12] = tested on: MDA-MB-436
Procedure, shortened: as §1

[13] = tested on: MDA-MB-453
Procedure, shortened: as §1

[14] = tested on: MDA-MB-468
Procedure, shortened: as §1

[15] = tested on: MFM-223
Procedure, shortened: as §1

[16] = tested on: HCC1937
Procedure, shortened: as §1

SMILES | normalised response [1] [%] | normalised response [2] [%] | normalised response [3] [%] | normalised response [4] [%] | normalised response [5] [%] | normalised response [6] [%] | normalised response [7] [%] | normalised response [8] [%] | normalised response [9] [%] | normalised response [10] [%] | normalised response [11] [%] | normalised response [12] [%] | normalised response [13] [%] | normalised response [14] [%] | normalised response [15] [%] | normalised response [16] [%]
Cc1c(N)nc([C@H](CC(N)=O)NC[C@H](N)C(N)=O)nc1C(=O)N[C@H](C(=O)N[C@H](C)[C@@H](O)[C@H](C)C(=O)N[C@H](C(=O)NCCc1nc(-c2nc(C(=O)NCCC[S+](C)C)cs2)cs1)[C@@H](C)O)[C@@H](OC1OC(CO)C(O)C(O)C1OC1OC(CO)C(O)C(OC(N)=O)C1O)c1cnc[nH]1 (stereo partly drawn) [Bleomycin] (1000 nM) | 98.2 | 92 | 92.9 | 44.5 | 92.7 | 97.5 | 99.9 | 54.8 | 67.4 | 92.5 | 67.9 | 84.5 | 99.1 | 138 | 88 | –
Cc1c(N)nc([C@H](CC(N)=O)NC[C@H](N)C(N)=O)nc1C(=O)N[C@H](C(=O)N[C@H](C)[C@@H](O)[C@H](C)C(=O)N[C@H](C(=O)NCCc1nc(-c2nc(C(=O)NCCC[S+](C)C)cs2)cs1)[C@@H](C)O)[C@@H](OC1OC(CO)C(O)C(O)C1OC1OC(CO)C(O)C(OC(N)=O)C1O)c1cnc[nH]1 (stereo partly drawn) [Bleomycin] (10000 nM) | 93.2 | 82.7 | 99.4 | 43.9 | 81.7 | 92.1 | 93.6 | 95.6 | 24.7 | 112 | 78 | 68 | 90.6 | 201 | 94.4 | 80.1
Cc1cc2c(F)c(Oc3ncnn4cc(OC[C@@H](C)O)c(C)c34)ccc2[nH]1 [Brivanib] (100 nM) | 100 | 117 | 104 | 99.4 | 103 | 104 | 79.8 | 106 | – | 107 | 115 | 81.2 | 103 | 100 | 102 | 101
Cc1cc2c(F)c(Oc3ncnn4cc(OC[C@@H](C)O)c(C)c34)ccc2[nH]1 [Brivanib] (1000 nM) | 97.9 | 95.7 | 100 | 101 | 67.4 | 102 | 104 | 68.8 | 98.4 | 105 | 102 | 68.3 | 92.5 | 99.9 | 98.6 | 112
CCCCCOC(=O)Nc1nc(=O)n([C@@H]2O[C@H](C)[C@@H](O)[C@H]2O)cc1F [Capecitabine] (1000 nM) | 99.1 | 117 | 102 | 113 | 109 | 99.2 | 109 | 110 | 71.7 | 64.8 | – | 100 | 103 | – | 99.4 | 71.6
CCCCCOC(=O)Nc1nc(=O)n([C@@H]2O[C@H](C)[C@@H](O)[C@H]2O)cc1F [Capecitabine] (10000 nM) | 97.2 | 117 | 90.2 | 99.4 | 87.2 | 97.5 | 122 | 94.7 | 56.1 | 74.1 | 110 | 103 | 104 | 100 | – | 87.1
CC(C)C[C@H](NC(=O)[C@H](CCc1ccccc1)NC(=O)CN1CCOCC1)C(=O)N[C@@H](Cc1ccccc1)C(=O)N[C@@H](CC(C)C)C(=O)[C@@]1(C)CO1 [Carfilzomib] (100 nM) | 61.4 | 50.8 | 11.9 | 6.93 | -43 | 86.1 | 82.7 | -12.1 | 46.7 | 69.7 | -17.7 | 18.8 | 90.1 | -95.8 | 32.8 | 32.5
CCN(CC)CCOc1ccc(C(=C(Cl)c2ccccc2)c2ccccc2)cc1 [Clomifene] (1000 nM) | 97.6 | 114 | 99.7 | 110 | 99.8 | 99.3 | 82.3 | 90.2 | 102 | 80.3 | 96 | 83.7 | 104 | 68.9 | – | 82.8
CCN(CC)CCOc1ccc(C(=C(Cl)c2ccccc2)c2ccccc2)cc1 [Clomifene] (10000 nM) | 5.17 | 82.5 | – | 109 | 25.3 | 53.4 | 112 | – | -60.1 | 60.3 | -87.9 | 89.1 | 18.9 | 93.8 | 40.9 | -34.5
NC(=O)NO [Hydroxyurea] (10000 nM) | 100 | 115 | 95.1 | 69.1 | 116 | 103 | 98.7 | – | – | 99.2 | 113 | 84.6 | 106 | 81.7 | 79.9 | –
NC(=O)NO [Hydroxyurea] (100000 nM) | 97.4 | 109 | 101 | 5.76 | 85.8 | 97.6 | 118 | 110 | – | 96.7 | 118 | – | 91.5 | 104 | 96.8 | 111

Reference: the supplement of paper PMC4862054
